Consider four molecules from ChEMBL document CHEMBL5465560, “Selectivity Literature for EUbOPEN Chemogenomic Library” (2024).

Experiment [1] has as its target T1, Serine/threonine-protein kinase TAO2 (Homo sapiens) (UniProt Q9UL54).
T1 sequence (whole entry): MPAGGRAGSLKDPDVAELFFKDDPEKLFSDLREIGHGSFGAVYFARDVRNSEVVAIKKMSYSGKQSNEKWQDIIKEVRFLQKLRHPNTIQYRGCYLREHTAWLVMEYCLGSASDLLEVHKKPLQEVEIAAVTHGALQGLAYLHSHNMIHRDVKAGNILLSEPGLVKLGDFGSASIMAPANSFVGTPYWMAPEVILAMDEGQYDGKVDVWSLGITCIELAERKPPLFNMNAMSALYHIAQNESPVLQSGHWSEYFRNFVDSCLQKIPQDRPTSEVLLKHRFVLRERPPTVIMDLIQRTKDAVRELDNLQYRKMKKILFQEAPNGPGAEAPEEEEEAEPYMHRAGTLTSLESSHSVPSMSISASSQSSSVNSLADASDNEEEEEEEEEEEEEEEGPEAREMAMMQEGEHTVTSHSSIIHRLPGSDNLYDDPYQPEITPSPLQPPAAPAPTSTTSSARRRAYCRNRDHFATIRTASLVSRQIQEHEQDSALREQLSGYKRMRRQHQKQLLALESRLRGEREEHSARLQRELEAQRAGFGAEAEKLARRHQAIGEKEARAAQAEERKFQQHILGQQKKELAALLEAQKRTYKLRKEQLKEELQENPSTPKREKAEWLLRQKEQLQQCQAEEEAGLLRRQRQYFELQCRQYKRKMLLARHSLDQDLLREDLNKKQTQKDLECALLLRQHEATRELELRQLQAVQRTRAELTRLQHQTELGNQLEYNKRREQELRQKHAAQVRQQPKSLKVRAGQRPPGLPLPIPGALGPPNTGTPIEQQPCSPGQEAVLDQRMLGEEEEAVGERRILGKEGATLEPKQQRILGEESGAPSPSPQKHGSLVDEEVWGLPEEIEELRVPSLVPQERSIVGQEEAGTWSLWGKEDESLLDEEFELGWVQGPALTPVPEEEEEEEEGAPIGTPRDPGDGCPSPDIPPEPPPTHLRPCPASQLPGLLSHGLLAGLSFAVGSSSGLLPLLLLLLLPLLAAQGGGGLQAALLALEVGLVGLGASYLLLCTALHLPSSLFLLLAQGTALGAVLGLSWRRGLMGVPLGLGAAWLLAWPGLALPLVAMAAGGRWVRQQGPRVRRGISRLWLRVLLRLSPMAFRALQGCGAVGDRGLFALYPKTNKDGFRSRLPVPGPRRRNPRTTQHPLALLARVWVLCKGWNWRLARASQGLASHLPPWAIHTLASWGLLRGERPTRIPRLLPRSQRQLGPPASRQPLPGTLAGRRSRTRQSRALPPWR
The experiment in a line: Selectivity interaction (Kinase panel (KiNativ target engagement assay in Jurkat cells)) EUB0001635a TAOK2. Particulars: Selectivity number of off-targets 0.0, Selectivity number of targets 233.0, Source Knowledge https://www.sciencedirect.com/science/article/pii/S2451945619300674?via%3Dihub, at 1 µM. It is filed as cell-based.

Experiment [2] deals with 5'-AMP-activated protein kinase catalytic subunit alpha-1 (Homo sapiens, UniProt Q13131). Briefly: Selectivity interaction (Kinase panel (KiNativ target engagement assay in Jurkat cells)) EUB0001635a PRKAA1. The experiment is classed as cell-based. Particulars: Selectivity number of off-targets 0.0, Selectivity number of targets 233.0, Source Knowledge https://www.sciencedirect.com/science/article/pii/S2451945619300674?via%3Dihub, at 1 µM.
5'-AMP-activated protein kinase catalytic subunit alpha-1, sequence (Q13131 whole entry, looked up): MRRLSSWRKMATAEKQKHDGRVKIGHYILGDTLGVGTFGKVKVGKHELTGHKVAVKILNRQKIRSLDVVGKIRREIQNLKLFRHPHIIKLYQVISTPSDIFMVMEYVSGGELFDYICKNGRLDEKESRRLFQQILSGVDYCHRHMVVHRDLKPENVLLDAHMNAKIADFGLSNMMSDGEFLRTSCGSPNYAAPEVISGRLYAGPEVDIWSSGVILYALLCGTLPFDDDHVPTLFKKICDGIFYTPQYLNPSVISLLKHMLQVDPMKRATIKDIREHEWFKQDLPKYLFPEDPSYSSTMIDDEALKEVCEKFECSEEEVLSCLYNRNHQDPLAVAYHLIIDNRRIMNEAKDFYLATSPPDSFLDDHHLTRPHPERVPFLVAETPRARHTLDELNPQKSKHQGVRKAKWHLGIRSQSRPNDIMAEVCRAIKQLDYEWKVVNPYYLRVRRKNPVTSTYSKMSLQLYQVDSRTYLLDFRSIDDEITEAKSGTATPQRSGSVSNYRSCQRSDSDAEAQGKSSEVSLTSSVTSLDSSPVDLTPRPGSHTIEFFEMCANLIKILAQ

For experiment [3], the target named is Tyrosine-protein kinase receptor UFO (Homo sapiens) (UniProt P30530). Particulars: at 10 µM.
Tyrosine-protein kinase receptor UFO (Homo sapiens), sequence (P30530 whole entry): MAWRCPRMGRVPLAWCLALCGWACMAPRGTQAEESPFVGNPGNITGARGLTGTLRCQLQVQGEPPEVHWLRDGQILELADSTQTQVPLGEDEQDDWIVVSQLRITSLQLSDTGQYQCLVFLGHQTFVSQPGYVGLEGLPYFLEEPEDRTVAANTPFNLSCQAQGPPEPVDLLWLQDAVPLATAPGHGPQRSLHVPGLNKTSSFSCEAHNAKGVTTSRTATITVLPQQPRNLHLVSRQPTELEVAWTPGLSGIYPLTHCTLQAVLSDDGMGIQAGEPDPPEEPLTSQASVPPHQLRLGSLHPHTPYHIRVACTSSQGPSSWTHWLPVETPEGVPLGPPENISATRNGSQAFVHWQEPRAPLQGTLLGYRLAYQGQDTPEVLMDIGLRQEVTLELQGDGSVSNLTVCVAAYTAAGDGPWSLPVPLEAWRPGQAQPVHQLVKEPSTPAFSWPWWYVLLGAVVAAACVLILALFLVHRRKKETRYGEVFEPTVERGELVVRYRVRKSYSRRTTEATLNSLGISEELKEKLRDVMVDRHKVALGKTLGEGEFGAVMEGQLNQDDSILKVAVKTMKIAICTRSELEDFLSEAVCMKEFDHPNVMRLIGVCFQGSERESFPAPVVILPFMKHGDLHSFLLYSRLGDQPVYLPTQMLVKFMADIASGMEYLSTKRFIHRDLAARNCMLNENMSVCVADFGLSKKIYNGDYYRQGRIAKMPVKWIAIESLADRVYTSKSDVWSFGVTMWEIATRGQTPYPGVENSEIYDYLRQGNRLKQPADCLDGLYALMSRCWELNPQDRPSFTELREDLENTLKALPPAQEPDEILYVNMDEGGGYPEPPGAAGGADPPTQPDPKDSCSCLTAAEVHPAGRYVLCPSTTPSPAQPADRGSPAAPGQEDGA
For experiment [4], the target named is T2, SNF-related serine/threonine-protein kinase (Homo sapiens) (UniProt Q9NRH2).
T2 sequence (whole entry): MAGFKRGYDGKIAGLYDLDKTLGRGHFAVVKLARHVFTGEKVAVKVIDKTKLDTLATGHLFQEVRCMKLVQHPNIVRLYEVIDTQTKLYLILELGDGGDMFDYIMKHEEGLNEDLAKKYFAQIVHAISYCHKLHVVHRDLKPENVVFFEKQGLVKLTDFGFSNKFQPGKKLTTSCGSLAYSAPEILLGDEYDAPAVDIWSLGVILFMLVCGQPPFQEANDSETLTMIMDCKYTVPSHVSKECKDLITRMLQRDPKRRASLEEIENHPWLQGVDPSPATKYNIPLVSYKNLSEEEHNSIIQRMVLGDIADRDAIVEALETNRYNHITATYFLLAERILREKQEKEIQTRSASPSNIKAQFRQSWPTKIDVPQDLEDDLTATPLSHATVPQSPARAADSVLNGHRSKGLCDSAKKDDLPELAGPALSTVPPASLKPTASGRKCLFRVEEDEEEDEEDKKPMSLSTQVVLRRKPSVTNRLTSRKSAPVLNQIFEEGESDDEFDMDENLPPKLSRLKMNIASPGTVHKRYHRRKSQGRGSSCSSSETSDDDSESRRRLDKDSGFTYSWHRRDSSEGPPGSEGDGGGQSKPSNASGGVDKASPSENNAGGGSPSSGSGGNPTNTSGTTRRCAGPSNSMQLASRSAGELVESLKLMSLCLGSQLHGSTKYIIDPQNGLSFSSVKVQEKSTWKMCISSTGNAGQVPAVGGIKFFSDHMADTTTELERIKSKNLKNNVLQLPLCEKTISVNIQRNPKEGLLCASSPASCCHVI
Particulars: at 10 µM.

Experiment [5] addresses Serine/threonine-protein kinase SBK1 (Homo sapiens) (UniProt Q52WX2). Particulars: at 10 µM.
The target in experiment [6] is T3, Tyrosine-protein kinase ITK/TSK (Homo sapiens) (UniProt Q08881).
T3 sequence (whole entry): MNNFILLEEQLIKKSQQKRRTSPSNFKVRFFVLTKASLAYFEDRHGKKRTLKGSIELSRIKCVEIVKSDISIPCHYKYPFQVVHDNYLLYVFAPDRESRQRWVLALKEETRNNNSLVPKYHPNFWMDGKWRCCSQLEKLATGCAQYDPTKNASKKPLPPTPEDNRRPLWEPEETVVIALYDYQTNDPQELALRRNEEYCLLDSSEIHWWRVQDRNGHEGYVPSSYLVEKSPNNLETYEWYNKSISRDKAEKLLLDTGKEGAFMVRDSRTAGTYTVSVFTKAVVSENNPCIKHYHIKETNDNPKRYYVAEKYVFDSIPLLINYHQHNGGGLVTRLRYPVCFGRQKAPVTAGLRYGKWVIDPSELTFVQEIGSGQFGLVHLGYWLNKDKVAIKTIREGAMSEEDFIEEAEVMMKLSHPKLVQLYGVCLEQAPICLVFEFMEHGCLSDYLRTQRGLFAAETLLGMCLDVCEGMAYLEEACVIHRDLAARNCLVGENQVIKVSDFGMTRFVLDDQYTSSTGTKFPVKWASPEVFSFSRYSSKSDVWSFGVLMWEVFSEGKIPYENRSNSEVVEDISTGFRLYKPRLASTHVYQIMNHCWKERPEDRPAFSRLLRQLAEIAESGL
The experiment in a line: Selectivity interaction (KinomeScan (DiscoverX)) EUB0001079a ITK. Particulars: at 1 µM.

The target in experiment [7] is Maternal embryonic leucine zipper kinase (Homo sapiens) (UniProt Q14680). The experiment in a line: Selectivity interaction (Kinase panel (Invitrogen)) EUB0000639a MELK. Particulars: at 200 nM.
Maternal embryonic leucine zipper kinase (Homo sapiens), sequence (Q14680 whole entry, looked up): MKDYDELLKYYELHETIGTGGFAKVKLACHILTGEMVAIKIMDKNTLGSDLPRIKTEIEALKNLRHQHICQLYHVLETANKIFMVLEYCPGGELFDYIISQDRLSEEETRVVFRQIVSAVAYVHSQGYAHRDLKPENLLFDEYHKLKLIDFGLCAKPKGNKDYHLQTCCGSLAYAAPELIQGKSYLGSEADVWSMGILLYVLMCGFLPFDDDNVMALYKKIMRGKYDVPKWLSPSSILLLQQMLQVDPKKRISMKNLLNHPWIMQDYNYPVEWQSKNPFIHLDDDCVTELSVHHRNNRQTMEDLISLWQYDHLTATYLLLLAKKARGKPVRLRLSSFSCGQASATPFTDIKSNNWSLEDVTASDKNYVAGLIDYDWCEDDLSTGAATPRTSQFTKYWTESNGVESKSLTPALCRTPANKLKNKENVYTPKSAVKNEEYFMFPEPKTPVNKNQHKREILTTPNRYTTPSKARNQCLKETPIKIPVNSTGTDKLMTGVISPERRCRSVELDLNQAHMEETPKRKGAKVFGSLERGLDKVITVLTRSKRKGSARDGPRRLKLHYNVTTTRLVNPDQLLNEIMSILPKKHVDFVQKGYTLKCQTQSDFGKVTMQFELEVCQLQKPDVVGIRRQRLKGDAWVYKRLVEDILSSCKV

Serine/threonine-protein kinase SBK1 (Homo sapiens), sequence (Q52WX2 whole entry): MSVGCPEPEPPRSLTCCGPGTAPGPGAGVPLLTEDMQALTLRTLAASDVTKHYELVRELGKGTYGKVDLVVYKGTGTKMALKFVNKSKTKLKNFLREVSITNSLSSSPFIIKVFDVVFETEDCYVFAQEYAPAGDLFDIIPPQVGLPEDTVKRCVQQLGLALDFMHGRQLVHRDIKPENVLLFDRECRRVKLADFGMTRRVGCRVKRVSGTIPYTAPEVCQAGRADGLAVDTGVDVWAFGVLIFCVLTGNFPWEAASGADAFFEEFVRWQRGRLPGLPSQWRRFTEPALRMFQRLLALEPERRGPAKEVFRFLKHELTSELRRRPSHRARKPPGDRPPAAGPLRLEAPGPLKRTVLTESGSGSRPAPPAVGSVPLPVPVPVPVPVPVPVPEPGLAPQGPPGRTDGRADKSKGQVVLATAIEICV

Consider `C=CC(=O)Nc1ccc(C(=O)Nc2[nH]nc3c2CN(C(=O)N[C@H](CN(C)C)c2ccccc2)C3(C)C)cc1`, for which the % of engagement was -12.9% in experiment [1] and -51.7% in experiment [2].

For the molecule `Cc1cc([C@@H](C)Nc2ccccc2C(=O)O)c2nc(N3CCOCC3)cc(=O)n2c1` [AZD-6482], the % of control in experiment [3] was found to be 86%; in experiment [4], 89%; in experiment [5], 100%. `Nc1cnc(N2CCc3cc(S(=O)(=O)Nc4c(F)cc(Cl)cc4F)cc(N4CCCC4=O)c32)nc1` [TP-020n] yielded a % of control in experiment [6] of 100%. Molecule `CC[C@@H]1[C@H](F)C(=O)N[C@@H]1COc1nccc2cc(C(N)=O)c(OC)cc12` [ZIMLOVISERTIB] gave a % of inhibition in experiment [7] of 25.9%.
